The subject of assay [1] is Radical scavenging activity. Put plainly: Antioxidant activity assessed as DPPH radical scavenging activity studied at DPPH to compound ratio of 5. It is filed as functional. The conditions noted are these: dose or concentration not given here.
Assay [2] concerns Radical scavenging activity. Put plainly: Antioxidant activity assessed as DPPH radical scavenging activity studied at DPPH to compound ratio of 2. Type of assay: functional. To be noted: dose or concentration not given here. Background: Loss of DPPH colour is used to gauge radical scavenging.

The results in this text go back to ChEMBL document CHEMBL1142574, “Identification of radical scavenging compounds in Rhaponticum carthamoides by means of LC-DAD-SPE-NMR” (J Nat Prod, 2005).

Structures are written as SMILES.

In the case of `CC(=O)OC[C@H]1O[C@@H](Oc2cc3oc(-c4ccc(O)cc4)c(O)c(=O)c3c(O)c2O)[C@H](O)[C@@H](O)[C@@H]1O`, the inhibition in assay [1] was found to be 36%; in assay [2] it was 75%.
On the same counts, the results for `O=C(/C=C/c1ccc(O)c(O)c1)O[C@H](Cc1ccc(O)c(O)c1)C(=O)O` are 89% and 98%.
On the same counts, the results for `Cc1c(C)c2c(c(C)c1O)CCC(C)(C(=O)O)O2` (stereo unspecified) are 79% and 98%.

One may read the inhibition as the share of the control response that was lost under treatment.
